Test results from US20250136606A1, “MODULATORS OF TRPML, THEIR COMPOSITIONS AND METHODS OF USE” (Caraway Therapeutics, Inc., priority 2021, published 2025).

Columns and labels:
Assay type in all cases: cell-based
Settings in all cases: fluorescent calcium assay
TRPML1 = TRPML1 (Homo sapiens, UniProt Q9GZU1); experiment: Fluorescent TRPML1 assay (Fluo4-AM calcium fluorescence in doxycycline-induced HEK-293 Trex cells)
How it was run: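 HEK-293 Trex cells stably carrying human TRPML1 (surface-trafficking mutant) were induced overnight with 0.5 ug/mL doxycycline, loaded with 1 micromolar Fluo4-AM, and suspended in Ringer's with 10 mM calcium. Compounds at 20 micromolar to 6 nanomolar final, half-log steps, triplicate; fluorescence 480/540 nm gave percent activity versus controls and EC50 by non-linear regression.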

TRPML3 = target: T1, TRPML3 (Homo sapiens, UniProt Q8TDD5); experiment: Fluorescent TRPML3 assay (performed as for TRPML1, substituting the TRPML3 subtype)
T1 construct: expressed in transfected cells
T1 sequence (Q8TDD5 1-553): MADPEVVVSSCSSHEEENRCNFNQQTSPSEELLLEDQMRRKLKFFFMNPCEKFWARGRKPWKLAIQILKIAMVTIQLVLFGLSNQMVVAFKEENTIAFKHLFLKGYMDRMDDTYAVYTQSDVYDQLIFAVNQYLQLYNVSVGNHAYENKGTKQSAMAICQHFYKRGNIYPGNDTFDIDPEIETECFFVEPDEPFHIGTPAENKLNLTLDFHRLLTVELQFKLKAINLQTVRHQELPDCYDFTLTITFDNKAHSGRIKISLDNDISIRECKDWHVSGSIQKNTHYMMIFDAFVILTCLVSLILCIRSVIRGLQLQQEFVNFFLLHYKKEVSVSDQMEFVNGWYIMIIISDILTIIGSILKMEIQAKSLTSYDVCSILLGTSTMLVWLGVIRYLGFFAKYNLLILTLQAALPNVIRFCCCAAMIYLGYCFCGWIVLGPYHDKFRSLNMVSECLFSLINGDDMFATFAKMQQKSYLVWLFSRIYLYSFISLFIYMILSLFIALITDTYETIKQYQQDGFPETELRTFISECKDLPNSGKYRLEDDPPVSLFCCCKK
How it was run: (§1)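 HEK-293 Trex, dox-induced (0.5 ug/mL), mutated for surface expression. Fluo4-AM 1 micromolar load ~60 min, dark; buffer modified Ringer's, 10 mM Ca. Cpds 20 micromolar–6 nanomolar final, half-log, n=3. Read ex 480/em 540; % activity vs controls; EC50 nonlinear fit.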

TRPML2 = target: T2, TRPML2 (Homo sapiens, UniProt Q8IZK6); experiment: Fluorescent TRPML2 assay (performed as for TRPML1, substituting the TRPML2 subtype)
T2 construct: expressed in transfected cells
T2 sequence (Q8IZK6 1-566): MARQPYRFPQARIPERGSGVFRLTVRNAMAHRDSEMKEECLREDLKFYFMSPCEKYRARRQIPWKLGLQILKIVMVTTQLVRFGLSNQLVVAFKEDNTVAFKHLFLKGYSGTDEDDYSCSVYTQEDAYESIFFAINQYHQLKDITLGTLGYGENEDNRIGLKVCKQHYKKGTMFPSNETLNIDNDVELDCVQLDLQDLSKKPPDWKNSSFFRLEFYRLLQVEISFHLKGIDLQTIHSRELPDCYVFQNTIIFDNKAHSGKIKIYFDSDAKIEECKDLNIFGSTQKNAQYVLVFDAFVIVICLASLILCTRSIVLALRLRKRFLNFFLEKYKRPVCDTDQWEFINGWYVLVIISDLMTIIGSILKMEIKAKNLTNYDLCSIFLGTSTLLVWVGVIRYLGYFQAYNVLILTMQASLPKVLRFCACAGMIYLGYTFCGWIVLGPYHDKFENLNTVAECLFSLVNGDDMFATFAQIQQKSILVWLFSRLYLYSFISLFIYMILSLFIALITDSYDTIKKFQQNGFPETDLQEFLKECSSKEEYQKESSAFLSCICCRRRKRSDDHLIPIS
How it was run: as §1

Sequence of TRPML1 (Q9GZU1 whole entry L15A/L16A/L577A/L578A, form open): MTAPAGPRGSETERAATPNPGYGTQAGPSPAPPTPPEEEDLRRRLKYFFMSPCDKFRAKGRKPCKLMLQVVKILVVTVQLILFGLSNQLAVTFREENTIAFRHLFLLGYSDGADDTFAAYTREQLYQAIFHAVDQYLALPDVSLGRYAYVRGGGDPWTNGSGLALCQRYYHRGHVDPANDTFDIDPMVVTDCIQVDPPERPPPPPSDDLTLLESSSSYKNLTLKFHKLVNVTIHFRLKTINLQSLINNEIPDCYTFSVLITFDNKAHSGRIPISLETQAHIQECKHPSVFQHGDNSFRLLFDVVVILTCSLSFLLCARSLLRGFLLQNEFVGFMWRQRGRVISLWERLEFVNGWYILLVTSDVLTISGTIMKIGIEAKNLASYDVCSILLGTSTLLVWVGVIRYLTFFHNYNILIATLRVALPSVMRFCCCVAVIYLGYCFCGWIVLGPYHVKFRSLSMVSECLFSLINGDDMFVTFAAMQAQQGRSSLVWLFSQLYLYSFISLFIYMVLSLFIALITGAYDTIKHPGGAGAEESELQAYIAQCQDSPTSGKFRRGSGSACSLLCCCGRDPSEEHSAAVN

SMILES	EC50 (TRPML1)	EC50 (TRPML3)	EC50 (TRPML2)
C[C@@H]1CN(C(=O)OC(C)(C)C)CCN1c1ncnc2c1c(N1CCCC1)cn2-c1cc(F)cc(F)c1 [Compound 255, tert-butyl (R)-4-(7-(3,5-difluorophenyl)-5-(pyrrolidin-1-yl)-7H-pyrrolo[2,3-d]pyrimidin-4-yl)-3-methylpiperazine-1-carboxylate]	100 to 500 nM	100 to 500 nM	500 to 2000 nM
CC[C@H]1CN(c2ncnc3c2c(C2CC2)cn3-c2cc(F)cc(F)c2)CCN1C(=O)OC(C)(C)C [Compound 257, tert-Butyl (S)-4-(5-cyclopropyl-7-(3,5-difluorophenyl)-7H-pyrrolo[2,3-d]pyrimidin-4-yl)-2-ethylpiperazine-1-carboxylate]	100 to 500 nM	100 to 500 nM	500 to 2000 nM
CC(C)(C)OC(=O)N1CCN(c2ncnc3c2c(C2CC2)cn3-c2cc(F)cc(F)c2)CC12CC2 [Compound 258, tert-Butyl 7-(5-cyclopropyl-7-(3,5-difluorophenyl)-7H-pyrrolo[2,3-d]pyrimidin-4-yl)-4,7-diazaspiro[2.5]octane-4-carboxylate]	< 100 nM	< 100 nM	500 to 2000 nM
C[C@H]1CN(C(=O)OC(C)(C)C(F)(F)F)CCN1c1ncnc2c1c(C1CC1)cn2-c1cccc(OC(F)(F)F)c1 [Compound 265, 1,1,1-trifluoro-2-methylpropan-2-yl (S)-4-(5-cyclopropyl-7-(3-(trifluoromethoxy)phenyl)-7H-pyrrolo[2,3-d]pyrimidin-4-yl)-3-methylpiperazine-1-carboxylate]	< 100 nM	< 100 nM	100 to 500 nM
C[C@H]1CN(C(=O)OC(C)(C)C(F)(F)F)CCN1c1ncnc2c1c(C1CC1)cn2-c1cccc(C#N)c1 [Compound 266, 1,1,1-trifluoro-2-methylpropan-2-yl (S)-4-(7-(3-cyanophenyl)-5-cyclopropyl-7H-pyrrolo[2,3-d]pyrimidin-4-yl)-3-methylpiperazine-1-carboxylate]	< 100 nM	< 100 nM	500 to 2000 nM
C[C@H]1CN(C(=O)OC(C)(C)C)CCN1c1ncnc2c1c(-c1nccnc1F)cn2-c1cccc(Cl)c1 [Compound 267, tert-butyl (S)-4-(7-(3-chlorophenyl)-5-(3-fluoropyrazin-2-yl)-7H-pyrrolo[2,3-d]pyrimidin-4-yl)-3-methylpiperazine-1-carboxylate]	100 to 500 nM	< 100 nM	100 to 500 nM
COc1cccc(-n2cc(-c3cccnc3)c3c(N4CCN(C(=O)OC(C)(C)C)C[C@@H]4C)ncnc32)c1 [Compound 272, tert-butyl-(S)-4-(7-(3-methoxyphenyl)-5-(pyridin-3-yl)-7H-pyrrolo[2,3-d]pyrimidin-4-yl)-3-methylpiperazine-1-carboxylate]	100 to 500 nM	100 to 500 nM	500 to 2000 nM
C[C@H]1CN(C(=O)OC(C)(C)C)CCN1c1ncnc2c1c(-c1nccnc1C(F)(F)F)cn2-c1cccc(Cl)c1 [Compound 273, tert-butyl (S)-4-(7-(3-chlorophenyl)-5-(3-(trifluoromethyl)pyrazin-2-yl)-7H-pyrrolo[2,3-d]pyrimidin-4-yl)-3-methylpiperazine-1-carboxylate]	100 to 500 nM	100 to 500 nM	500 to 2000 nM
COC(=O)c1nccnc1-c1cn(-c2cccc(Cl)c2)c2ncnc(N3CCN(C(=O)OC(C)(C)C)C[C@@H]3C)c12 [Compound 275, methyl (S)-3-(4-(4-(tert-butoxycarbonyl)-2-methylpiperazin-1-yl)-7-(3-chlorophenyl)-7H-pyrrolo[2,3-d]pyrimidin-5-yl)pyrazine-2-carboxylate]	> 2000 nM	500 to 2000 nM	> 2000 nM

Further lines, results first:

EC50 (TRPML1)	EC50 (TRPML3)	EC50 (TRPML2)	SMILES
< 100 nM	< 100 nM	500 to 2000 nM	CC[C@@H]1CN(c2ncnc3c2c(C2CC2)cn3-c2cc(F)cc(F)c2)CCN1C(=O)OC(C)(C)C [Compound 256, tert-butyl (R)-4-(5-cyclopropyl-7-(3,5-difluorophenyl)-7H-pyrrolo[2,3-d]pyrimidin-4-yl)-2-ethylpiperazine-1-carboxylate]
100 to 500 nM	100 to 500 nM	500 to 2000 nM	C[C@H]1CN(C(=O)OC(C)(C)C)CCN1c1ncnc2c1c(C1CC1)cn2-c1cncc(C#N)c1 [Compound 259]
< 100 nM	< 100 nM	< 100 nM	C[C@H]1CN(C(=O)OC(C)(C)C)CCN1c1ncnc2c1c(C1CC1)cn2-c1cc(C#N)ccn1 [Compound 260]
500 to 2000 nM	500 to 2000 nM	> 2000 nM	C[C@H]1CN(C(=O)OC(C)(C)C)CCN1c1ncnc2c1c(C1CCOCC1)nn2-c1ccccc1 [Compound 261, tert-butyl (S)-3-methyl-4-(1-phenyl-3-(tetrahydro-2H-pyran-4-yl)-1H-pyrazolo[3,4-d]pyrimidin-4-yl)piperazine-1-carboxylate]
< 100 nM	100 to 500 nM	500 to 2000 nM	C[C@@H]1CN(c2ncnc3c2c(N2CCC[C@@H]2C)cn3-c2cccc(Cl)c2)CCN1C(=O)OC(C)(C)C [Compound 262, tert-butyl (R)-4-(7-(3-chlorophenyl)-5-((S)-2-methylpyrrolidin-1-yl)-7H-pyrrolo[2,3-d]pyrimidin-4-yl)-2-methylpiperazine-1-carboxylate]
100 to 500 nM	100 to 500 nM	500 to 2000 nM	COc1cccc(-n2cc(C3CC3)c3c(N4CCN(C(=O)OC(C)(C)C(F)(F)F)C[C@@H]4C)ncnc32)c1 [Compound 263, 1,1,1-trifluoro-2-methylpropan-2-yl (S)-4-(5-cyclopropyl-7-(3-methoxyphenyl)-7H-pyrrolo[2,3-d]pyrimidin-4-yl)-3-methylpiperazine-1-carboxylate]
100 to 500 nM	100 to 500 nM	500 to 2000 nM	COc1cc(OC(F)(F)F)cc(-n2cc(C3CC3)c3c(N4CCN(C(=O)OC(C)(C)C)C[C@@H]4C)ncnc32)c1 [Compound 264, tert-butyl (S)-4-(5-cyclopropyl-7-(3-methoxy-5-(trifluoromethoxy)phenyl)-7H-pyrrolo[2,3-d]pyrimidin-4-yl)-3-methylpiperazine-1-carboxylate]
< 100 nM	< 100 nM	< 100 nM	C[C@H]1CN(C(=O)OC(C)(C)C)CCN1c1ncnc2c1c(-c1ccccc1F)cn2-c1cc(C#N)ccn1 [Compound 268, tert-butyl (S)-4-(7-(4-cyanopyridin-2-yl)-5-(2-fluorophenyl)-7H-pyrrolo[2,3-d]pyrimidin-4-yl)-3-methylpiperazine-1-carboxylate]
100 to 500 nM	100 to 500 nM	100 to 500 nM	CCc1nccnc1-c1cn(-c2cccc(Cl)c2)c2ncnc(N3CCN(C(=O)OC(C)(C)C)C[C@@H]3C)c12 [Compound 271, tert-butyl (S)-4-(7-(3-chlorophenyl)-5-(3-ethylpyrazin-2-yl)-7H-pyrrolo[2,3-d]pyrimidin-4-yl)-3-methylpiperazine-1-carboxylate]
100 to 500 nM	100 to 500 nM	500 to 2000 nM	C[C@H]1CN(C(=O)OC(C)(C)C)CCN1c1ncnc2c1c(-c1nccnc1C#N)cn2-c1cccc(Cl)c1 [Compound 274, tert-butyl (S)-4-(7-(3-chlorophenyl)-5-(3-cyanopyrazin-2-yl)-7H-pyrrolo[2,3-d]pyrimidin-4-yl)-3-methylpiperazine-1-carboxylate]
500 to 2000 nM	500 to 2000 nM	> 2000 nM	C[C@@H]1CN(c2ncnc3c2c(N2CCC[C@H]2C)cn3-c2cccc(Cl)c2)CCN1C(=O)OC(C)(C)C [Compound 299, tert-butyl (R)-4-(7-(3-chlorophenyl)-5-((R)-2-methylpyrrolidin-1-yl)-7H-pyrrolo[2,3-d]pyrimidin-4-yl)-2-methylpiperazine-1-carboxylate]
